Laboratory results: ChEMBL document CHEMBL2040799, “Exploring the Requirements for the Hydrophobic Scaffold and Polar Amine in inhibitors of M2 from Influenza A Virus” (ACS Med Chem Lett, 2011)

Columns and labels:
[1] = tested on: Matrix protein 2 (Influenza A virus), P06821 [V27A]; experiment: Inhibition of Influenza A Virus M2 proton channel V27A mutant expressed in Xenopus laevis oocytes at 100 uM after 2 mins by two-electrode patch clamp assay; format: cell-based; conditions: Oocyte
[2] = tested on: Matrix protein 2 (Influenza A virus), P06821 [withheld]; experiment: Inhibition of Influenza A Virus M2 proton channel S31N mutant expressed in Xenopus laevis oocytes at 100 uM after 2 mins by two-electrode patch clamp assay; format: cell-based; conditions: Oocyte

For `CC(C)(C)c1ccc(CN)cc1`, which inhibition [1] is on record?
The inhibition was < 15%.

What about the inhibition [2] of the same molecule?
Its inhibition is 33%.

Which inhibition [1] does the source give for `NC1Cc2ccccc2C1` here?
Its inhibition is < 15%.

What about the inhibition [2] of the same molecule?
The inhibition was 33%.

With `CC1(C)C(N)C1(C)C` as the molecule, how does the inhibition [1] read?
Its inhibition is < 15%.

What about the inhibition [2] of the same molecule?
Its inhibition is 33%.

What does the source list for `N=C(N)NC(=N)NC12CC3CC(CC(C3)C1)C2`?
inhibition [1]: < 15%; inhibition [2]: 33%

With `NC12CCC3CC(CC(C3)C1)C2` as the molecule, how does the inhibition [1] read?
Its inhibition is < 15%.

What about the inhibition [2] of the same molecule?
Its inhibition is 33%.

For `O=S(=O)(O)C12CC3CC(CC(C3)C1)C2`, which inhibition [1] is on record?
The inhibition was < 15%.

And the inhibition [2]?
Its inhibition is 33%.

`NC(CO)C12CC3CC(CC(C3)C1)C2` (stereo not given) was tested. Which inhibition [1] did it give?
The inhibition was 4%.

And the inhibition [2]?
Its inhibition is 15%.

How did the inhibition [1] turn out when `NC1C2C3CC4C2C(O)C2C1C3C42` (stereo not given) was run?
The inhibition was < 15%.

What about the inhibition [2] of the same molecule?
The inhibition was 33%.

For `OC1C2C3CC4C2C(O)C2C1C3C42` (stereo not given), which inhibition [1] is on record?
Its inhibition is < 15%.

And the inhibition [2]?
The inhibition was 33%.

How did the inhibition [1] turn out when `NC1C2C3CC4C1C1C2CC3C41` (stereo not given) was run?
The inhibition was < 15%.

And the inhibition [2]?
The inhibition was 33%.

Which results are given for `NC12CC3CCC(CC(C3)C1)C2`?
inhibition [1]: < 15%; inhibition [2]: 33%

How did the inhibition [1] turn out when `NC1C2CC3CC(C2)CC1C3` (stereo not given) was run?
The inhibition was < 15%.

And the inhibition [2]?
Its inhibition is 33%.

`NC(=O)C12CC3CC(CC(C3)C1)C2` was tested. Which inhibition [1] did it give?
Its inhibition is < 15%.

And the inhibition [2]?
The inhibition was 33%.

Which inhibition [1] does the source give for `NOC12CC3CC(CC(C3)C1)C2` here?
Its inhibition is < 15%.

What about the inhibition [2] of the same molecule?
The inhibition was 33%.

Which inhibition [1] does the source give for `NN1C(=O)CC2(CCCCC2)CC1=O` here?
Its inhibition is < 15%.

And the inhibition [2]?
Its inhibition is 33%.

What does the source list for `O=C1C2CC3CC(C2)CC1C3`?
inhibition [1]: < 15%; inhibition [2]: 33%

How did the inhibition [1] turn out when `NC1CCC2(CCCCC2)CC1` was run?
Its inhibition is < 15%.

What about the inhibition [2] of the same molecule?
The inhibition was 33%.

`NC1CC2CC1C1CCCC21` (stereo not given) was tested. Which inhibition [1] did it give?
Its inhibition is < 15%.

What about the inhibition [2] of the same molecule?
The inhibition was 33%.

How did the inhibition [1] turn out when `OC1CC2C3CCC(C3)C2C1O` (stereo not given) was run?
Its inhibition is < 15%.

And the inhibition [2]?
The inhibition was 33%.

How did the inhibition [1] turn out when `N=C(N)NCC12CC3CCC(CC(C3)C1)C2` was run?
The inhibition was < 15%.

What about the inhibition [2] of the same molecule?
The inhibition was 33%.

What does the source list for `C1CC2CCC1CNC2`?
inhibition [1]: < 15%; inhibition [2]: 33%

Which inhibition [1] does the source give for `C1CCC2(CC1)CCNCC2` here?
The inhibition was < 15%.

What about the inhibition [2] of the same molecule?
The inhibition was 33%.

What does the source list for `NC12CC3CC(CC(C3)C1)C2`?
inhibition [1]: 0%; inhibition [2]: 35%

For `CC(C)(C)CC(C)(C)N`, which inhibition [1] is on record?
Its inhibition is < 15%.

What about the inhibition [2] of the same molecule?
The inhibition was 33%.

`NNC1CCC2(CCCCC2)CC1` was tested. Which inhibition [1] did it give?
The inhibition was < 15%.

What about the inhibition [2] of the same molecule?
The inhibition was 33%.

For `CC1(O)C2CC3CC(C2)CC1C3` (stereo not given), which inhibition [1] is on record?
Its inhibition is < 15%.

And the inhibition [2]?
The inhibition was 33%.

Which results are given for `CC12CC3(O)CC1(C)CC3(O)C2`?
inhibition [1]: < 15%; inhibition [2]: 33%

How did the inhibition [1] turn out when `N=C(NO)C12CC3CC(CC(C3)C1)C2` was run?
Its inhibition is < 15%.

And the inhibition [2]?
Its inhibition is 33%.

How did the inhibition [1] turn out when `NN1CCC2(CCCCC2)CC1` was run?
The inhibition was < 15%.

What about the inhibition [2] of the same molecule?
Its inhibition is 33%.

With `OC1C2C3CC4C1C1C2CC3C41` (stereo not given) as the molecule, how does the inhibition [1] read?
Its inhibition is < 15%.

And the inhibition [2]?
The inhibition was 33%.

Which inhibition [1] does the source give for `C1CC2CC1C1CNCC21` (stereo not given) here?
The inhibition was < 15%.

What about the inhibition [2] of the same molecule?
The inhibition was 33%.

Which results are given for `C1CC2CC1C1CNC21` (stereo not given)?
inhibition [1]: < 15%; inhibition [2]: 33%

What does the source list for `OC1CCC(C2CC3CCC2C3)CC1O` (stereo not given)?
inhibition [1]: < 15%; inhibition [2]: 33%

For `NC12CC3CC(C1)CC(CO)(C3)O2`, which inhibition [1] is on record?
Its inhibition is < 15%.

And the inhibition [2]?
Its inhibition is 33%.

What does the source list for `NC12CC3CC(C1)CC(O)(C3)C2`?
inhibition [1]: < 15%; inhibition [2]: 33%

Which results are given for `C1NC2CC3CC1CC(C3)C2`?
inhibition [1]: < 15%; inhibition [2]: 33%

Which inhibition [1] does the source give for `N=C(N)C12CC3CC(CC(C3)C1)C2` here?
The inhibition was < 15%.

And the inhibition [2]?
The inhibition was 33%.

What does the source list for `O=C1CC2(CCCCC2)CC(=O)N1`?
inhibition [1]: < 15%; inhibition [2]: 33%

What does the source list for `OC12CC3CC(CC(C3)C1)C2`?
inhibition [1]: < 15%; inhibition [2]: 33%

For `N=C(N)NC12CC3CC(CC(C3)C1)C2`, which inhibition [1] is on record?
Its inhibition is < 15%.

What about the inhibition [2] of the same molecule?
The inhibition was 33%.
